No end group written: not given here.
Key:
[1] = tested on: bone marrow cells (GM-DCs, FL-DCs); experiment: Murine DC generation from bone marrow cells, flow cytometry and light microscopy; assay type: cell-based, mouse
Text: (§1) GM-DCs or FL-DCs were obtained from purified CD14+ monocytes from healthy donors or transplanted patients (1 month post-HSCT) cultured in Iscove's modified medium for 7-9 days, in the presence of rGM-CSF (Schering-Plough, Milan, Italy) and rIL-4 (Peprotech, Inalco, Milan, Italy) or FLT3-L (Immunex Corporation, Seattle, Wash.) (Blood. 2004; 103:4232-4239). DC recovery was between 20-30% reduced in cultures from transplanted patients. Murine GM-DCs or FL-DCs were obtained from bone marrow cells for 7-9 days, as described (Blood. 2004; 103:4232-4239). Thymosin alpha 1 and sThymosin alpha 1 were added to the cultures at 20 ng/mL. DCs (>99% CD11c+ consisting of 90-95% CD8-, 5-10% CD8+, and 1-5% B220+ cells) were purified from spleens (spDCs) by magnetic-activated sorting using CD11c MicroBeads and MidiMacs (Miltenyi Biotech). DC populations were further separated into CD8−, CD8+ and B220+ fractions by means of CD8 or B220 MicroBeads (Miltenyi Biotech). DCs were pulsed in serum-free Iscove medium for 24 hours with live unopsonized Aspergillus conidia or Zymosan from Saccharomyces cerevisiae (Sigma) or CpG-ODN 2006 as described.7 Phagocytosis was done as described (Blood. 2004; 103:4232-4239). Photographs were taken using a high Resolution Microscopy Color Camera AxioCam, using the AxioVision Software Rel. 3.1 (Carl Zeiss, Milan, Italy).
DCs were analyzed for antigen expression with a FACScan flow cytofluorometer (Becton Dickinson, Mountain View, Calif.) equipped with CELLQuest™ software and using conjugated mAbs from PharMingen (Blood. 2004; 103:4232-4239).
To assess how Thymosin alpha 1 would affect the phenotypic and functional properties of murine DCs, bone marrow cells were grown for 7-9 days in medium containing GM-CSF/IL4 or FLT3L, in the presence of Thymosin alpha 1 or a control, scrambled peptide. After maturation, cells were analyzed by flow cytometry and light microscopy (FIG. 1A).
(A) Surface expression of CD11c, CD 11b and B220 on DCs derived from bone marrow of C57BL6, TLR9−/− or IFN-aβR−/−mice and cultured with GM-CSF/IL-4 (GM-DCs) or FLT3L (FL-DCs) in the presence of Thymosin alpha 1 (+) or the scrambled peptide ( ). Percent of double positive cells is indicated.

GM-DCs or FL-DCs [2] = experiment: Cytokine production (ELISA) by murine GM-DCs or FL-DCs with Aspergillus conidia; assay type: cell-based, mouse
Text: as §1
(§2) Cytokine content was assessed by enzyme-linked immunosorbent assays (Endogen Human Elisa Kits, R&D Systems and Euroclone, Milan, Italy). AID EliSpot assay kits (Amplimedical, Buttigliera Alta, Turin, Italy) were used on purified splenic CD4+ Tcells cocultured with conidia-pulsed DCs for 5 days to enumerate cytokine-producing cells (Blood. 2003; 102:3807-3814). 1-MT was used at 2 μM.
(B) Cytokine production (ELISA) by GM-DCs or FL-DCs cultured in serum-free medium (1×10^6 cells/mL) with unopsonized Aspergillus conidia (5×10^5/mL) for 24 hours. The IDO inhibitor 1-MT was added at 2 μM. Data are aggregated results from three independent experiments. The detection limits (pg/mL) of the assays were <16 for IL-12p70 and <12 for IL-10.

splenic CD4+ T cells = experiment: Th1/T reg priming in vitro of splenic CD4+ T cells by Aspergillus-pulsed DCs (ELISPOT, flow cytometry); assay type: cell-based, mouse
Procedure: IDO expression and functional activity were assessed as described in Nat. Immunol. 2002; 3:1097-1101. Generation, purification and activity of T reg cells Splenic CD4+ T-cells were cocultured with conidia-pulsed DCs for 5 days […] before flow cytometry or ELISPOT assay. 1-MT (Sigma-Aldrich) was used at 2 μM. CD4+CD25+ and CD4+CD25− cells (>90% pure on FACS analysis) were separated by magnetic cell sorting from lung and TLN (J. Immunol. 2006; 176:1712-1723). For T reg cell inhibition, 5×10^4 TLN T reg cells were added to 3×10^5 CD4+CD25− cells, both from transplanted mice, stimulated with 3×10^4 autologous Aspergillus conidia-pulsed spDCs or with or 1.5×10^5 allogeneic spDCs from naïve donor mice for five days before H^3-thymidine labeling. Purified peritoneal CD 11b+Gr−1+PMN (>98% pure on FACS analysis) (2×10^6) were exposed to resting conidia in the presence of 4×10^5 CD4+CD25+ for 60 min for oxidant production or 24 hours for cytokine production (J. Immunol. 2006; 176:1712-1723).
as §2
(A) Frequency of IFN-γ-/IL-10-producing splenic CD4+ T cells activated by Aspergillus-pulsed Thymosin alpha 1-treated GM-DCs or FL-DCs. 1-MT was present in selected cultures. Plates were read with the AID-EliSpot Reader System (Amplimedical). Values are means±SE per 10^6 cells of samples from 3-5 experiments, calculated using replicates of serial twofold dilutions of cells. (*) P<0.05, conidia-exposed versus unexposed cells; (**) P<0.05, thymosin-exposed versus unexposed cells.
(B) Phenotypic analysis of CD4+ cells cultured alone (−) or as in (A). Numbers represent the percentage of double positive cells.

GM-DCs or FL-DCs [3] = experiment: Cytokine production and T cell priming by human DCs (ELISA); assay type: cell-based
Text: as §1, §2
(C) Cytokine production (pg/mL by ELISA) by Thymosin alpha 1-induced DCs from healthy donors cultured in serum-free medium (1×10^6 cells/mL) with unopsonized Aspergillus conidia (5×10^5/mL) or 10 μg/mL Zymosan or 2 μg/mL CpG-B ODN 2006 for 24 hours. The data shown are aggregated results from three independent experiments and presented in the mean±SD. […]

[4] = in response to Aspergillus conidia, 24 hours

Thymosin alpha 1: naturally occurring thymic peptide; supplied as purified, endotoxin-free sterile lyophilized acetylated polypeptide from SciClone Pharmaceuticals (Ac-SDAAVDTSSEITTKDLKEKKEVVEEAEN; UniProt P06454 2-29, looked up)
B220+CD11c+ cells in FL-DCs ([1]; FLT3L culture, 20 ng/mL): not increased | total yield of cells ([1]; GM-CSF/IL-4 culture, 20 ng/mL): did not affect total yield of cells | expansion of pDCs in GM-DCs from TLR9-/- or IFN-aβR-/- mice ([1]; GM-DCs from knockout mice): not observed | expansion of B220+CD11c+ cells ([1]; Thymosin alpha 1 alone, without GM-CSF/IL-4 or FLT3L): not observed | occurrence of pDCs (B220+CD11c+ cells) in GM-DCs ([1]; bone marrow cells, GM-CSF/IL-4, 7-9 days, peptide 20 ng/mL): greatly increased the occurrence of pDCs in GM-DCs | IL-10 production by cells from TLR9-/- or IFN-aβR-/- mice (GM-DCs or FL-DCs [2]; GM-DCs or FL-DCs, in response to Thymosin alpha 1): did not occur | release of IL-10 and IL-12 by FL-DCs (GM-DCs or FL-DCs [2]; [4]): IL-10, more than IL-12 | release of IL-12 and IL-10 by GM-DCs (GM-DCs or FL-DCs [2]; [4]): induced release of IL-12 and IL-10 | priming for IL-10-producing cells by FL-DCs (splenic CD4+ T cells; Aspergillus-pulsed FL-DCs, 5 days coculture): increased priming | priming for IFN-γ-/IL-10-producing CD4+ T cells by GM-DCs (splenic CD4+ T cells; Aspergillus-pulsed GM-DCs, 5 days coculture): increased priming | CD4+CD25+ T cells positive for intracellular Foxp3 and surface CTLA-4 (splenic CD4+ T cells; cultured with Thymosin alpha 1-induced DCs): a significant proportion of the CD4+CD25+ T cells stained positive for intracellular Foxp3 and surface CTLA-4 | IL-10 production by GM-DCs (GM-DCs or FL-DCs [3]; healthy donors, Aspergillus conidia, 24 hours): produced increased levels of IL-10 | IFN-a production (GM-DCs or FL-DCs [3]; in response to Aspergillus conidia, Zymosan or CpG ODN): mainly produced by FL-DCs or Thymosin alpha 1-treated GM-DCs | priming for IL-10-producing CD4+ T cells (GM-DCs or FL-DCs [3]; in vitro, Thymosin alpha 1-treated GM-DCs): primed for IL-10-producing CD4+ T cells in vitro

Source: patent publication US8022036B2, “Use of thymosin alpha 1 for the treatment of immunological diseases” (Sigma-Tau Industrie Farmaceutiche Riunite S.p.A., priority 2006, dated 2011)
